From patent publication US11306096B2, “4,6 dihydropyrrolo [3,4-C] pyrazole-5 (1H)-carbonitrile derivates for treating cancer” (MISSION THERAPEUTICS LIMITED, priority 2016, dated 2022)

Molecular target: USP7 (Homo sapiens (Human), UniProt Q93009)
Experiment: USP7 Biochemical IC50 Assay
Conditions: FLAG-USP7; enzyme and compound incubated 30 min at room temp; TAMRA labelled peptide-ubiquitin fluorescence polarisation substrate; read after 2 hr; read-out: IC50 range
Protocol: The USP7 construct was PCR amplified and cloned into a pFLAG-CMV-6a vector (Sigma-Aldrich) with an N-terminal FLAG tag. HEK293T cells were transfected with FLAG-USP7 using TransIT-LT1 transfection reagent (Mirus) according to the manufacturer's instructions. Cells were harvested 40 hours after transfection. […] The resin was washed two times with low salt buffer plus protease inhibitors (complete mini, Roche) and phosphatase inhibitors (PhosSTOP mini, Roche) and one time with high salt buffer (20 mM Tris, pH 7.5, 500 mM NaCl, 0.5 mM EDTA, 5 mM beta-mercaptoethanol, protease inhibitors (complete mini, Roche) and phosphatase inhibitors (PhosSTOP mini, Roche). To elute the bound USP7, elution buffer (10 mM Tris, pH 7.5, 150 mM NaCl, 0.5 mM EDTA, 10% glycerol, 0.5% NP40, 5 mM beta-mercaptoethanol, 0.15 mg/ml 3×FLAG peptide (Sigma-Aldrich)) was added to the resin and incubated at 4° C. for 2.5 hours rotating. The resin was centrifuged at 4000 rpm for 30 seconds, and the supernatant containing purified FLAG-USP7 was removed and stored at −80° C.
USP7 Biochemical IC50 Assay
A typical 8-point dilution series would be 100, 30, 10, 3, 1, 0.3, 0.1, 0.03 μM final. […] Either 1 μl of 50% DMSO or diluted compound was added to the plate. USP7 was diluted in reaction buffer (20 mM Tris, pH 7.5, 100 mM NaCl, 0.05% Tween 20, 0.5 mg/ml BSA, 5 mM—beta mercaptoethanol) to the equivalent of 0.0025 μl/well and 10 μl of diluted USP7 was added to the compound. Enzyme and compound were incubated for 30 min at room temp. Reactions were initiated by the addition of 50 nM of TAMRA labelled peptide linked to ubiquitin via an iso-peptide bond as fluorescence polarisation substrate. Reactions were read immediately after addition of substrate and following a 2 hr incubation at room temperature. Readings were performed on a Pherastar Plus (BMG Labtech). λ Excitation 540 nm; λ Emission 590 nm.

Sequence of USP7 (Q93009 whole entry): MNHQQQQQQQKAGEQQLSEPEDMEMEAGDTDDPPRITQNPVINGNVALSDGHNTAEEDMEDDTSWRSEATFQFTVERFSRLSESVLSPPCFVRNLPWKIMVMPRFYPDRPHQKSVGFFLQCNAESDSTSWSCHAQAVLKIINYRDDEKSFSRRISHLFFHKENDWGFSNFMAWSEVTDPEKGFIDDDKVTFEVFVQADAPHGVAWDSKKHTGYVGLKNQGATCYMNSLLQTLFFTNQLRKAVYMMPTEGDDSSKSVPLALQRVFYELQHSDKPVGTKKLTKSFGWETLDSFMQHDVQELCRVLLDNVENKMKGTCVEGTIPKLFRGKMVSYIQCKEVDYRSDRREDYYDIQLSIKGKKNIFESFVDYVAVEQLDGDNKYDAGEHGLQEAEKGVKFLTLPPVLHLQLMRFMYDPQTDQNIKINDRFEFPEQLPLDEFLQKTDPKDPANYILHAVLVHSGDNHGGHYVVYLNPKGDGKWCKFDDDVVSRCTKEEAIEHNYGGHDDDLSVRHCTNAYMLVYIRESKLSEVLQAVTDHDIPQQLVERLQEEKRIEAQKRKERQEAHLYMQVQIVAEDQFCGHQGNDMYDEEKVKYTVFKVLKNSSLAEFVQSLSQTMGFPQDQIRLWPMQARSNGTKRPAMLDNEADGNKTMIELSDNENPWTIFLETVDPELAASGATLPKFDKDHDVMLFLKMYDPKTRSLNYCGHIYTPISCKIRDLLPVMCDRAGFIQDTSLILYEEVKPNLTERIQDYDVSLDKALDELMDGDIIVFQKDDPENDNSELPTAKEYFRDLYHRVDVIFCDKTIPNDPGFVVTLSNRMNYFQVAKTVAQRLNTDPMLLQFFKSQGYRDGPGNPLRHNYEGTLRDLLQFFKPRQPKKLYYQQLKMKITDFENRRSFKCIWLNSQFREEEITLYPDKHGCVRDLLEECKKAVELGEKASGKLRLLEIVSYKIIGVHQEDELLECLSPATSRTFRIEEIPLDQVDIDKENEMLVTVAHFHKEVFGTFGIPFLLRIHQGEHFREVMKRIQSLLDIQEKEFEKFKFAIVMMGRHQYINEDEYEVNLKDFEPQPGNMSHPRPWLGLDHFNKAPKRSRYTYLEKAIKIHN

`CN1CCC(n2cc(-c3n[nH]c4c3CN(C#N)C4)cn2)CC1` [Example 68, 3-(1-(1-Methylpiperidin-4-yl)-1H-pyrazol-4-yl)-4,6-dihydropyrrolo[3,4-c]pyrazole-5(1H)-carbonitrile] was tested, and the IC50 was < 10 µM.
For `N#CN1Cc2c(Nc3cc4ccccc4cn3)nn(Cc3ccccc3)c2C1` [Example 32, 1-Benzyl-3-(isoquinolin-3-ylamino)-4,6-dihydropyrrolo[3,4-c]pyrazole-5(1H)-carbonitrile], the IC50 was < 10 µM.
With `N#CN1Cc2cnn(-c3ccc(F)cc3)c2C1` [Example 3, 1-(4-Fluorophenyl)-4,6-dihydropyrrolo[3,4-c]pyrazole-5(1H)-carbonitrile] the IC50 was < 10 µM.
`N#CN1Cc2[nH]nc(-c3ccc(Oc4ccccc4)cc3)c2C1` [Example 41, 3-(4-Phenoxyphenyl)-4,6-dihydropyrrolo[3,4-c]pyrazole-5(1H)-carbonitrile] was tested, and the IC50 was < 10 µM.
`N#CN1Cc2cnn(-c3cn(-c4ccccc4)cn3)c2C1` [Example 9, 1-(1-Phenyl-1H-imidazol-4-yl)-4,6-dihydropyrrolo[3,4-c]pyrazole-5(1H)-carbonitrile] showed an IC50 of 10 to 30 µM.
`CN1CCN(c2ccc(-c3n[nH]c4c3CN(C#N)C4)cn2)CC1` [Example 69, 3-(6-(4-Methylpiperazin-1-yl)pyridin-3-yl)-4,6-dihydropyrrolo[3,4-c]pyrazole-5(1H)-carbonitrile] was tested, and the IC50 was < 10 µM.
